Measured values as given in patent US4551460A, “Pyrido[2,1-b]quinazoline derivatives useful as agents for treatment of allergic conditions and vascular disorders involving thrombosis” (priority 1983, dated 1985).

Tested on: PAF induced mortality
Experiment: Prevention of mortality induced by platelet aggregating factor (PAF)
Type: in vivo, mice (CF1)
Conditions: Mus musculus, Platelet; oral, PAF 0.10 mg/kg i.v.; read-out: oral ID50 (Inhibiting Dose), PAF induced mortality
Method: (k) Prevention of Mortality Induced by Platelet Aggregating Factor (PAF)
Male CF1 mice weighing 20-30 gms (Carworth Farms Co.) are fed ad libitum.
Racemic 2-[[[2-(acetyloxy)-3-(octadecyloxy)propoxy]hydroxyphosphinyl]oxy]-N,N,N-trimethylethanaminium hydroxide inner salt hemihydrate (PAF) is concentrated in ethanol at a concentration of 1 mg/ml.At the time of experimentation, PAF is diluted in 0.1% BSA (bovine serum albumin) and administered intravenously at a dose of 0.10 mg/kg one hour after 10 mice are dosed with either vehicle (BSA) or drug. Mortality in mice treated with PAF occurs within 30 minutes after i.v. administration.

**Q.** For `CC(C)c1ccc2nc3ccc(C(=O)NCCCCCCn4ccnc4)cn3c(=O)c2c1` [Example 31, 2-(1-methylethyl)-N-[6-(1H-imidazol-1-yl)hexyl]-11-oxo-11H-pyrido[2,1-b]quinazoline-8-carboxamide], which ED50 is on record?
**A.** Its ED50 is 17 mg/kg.
